This note sets out measurements from US9290482B2, “Amino-substituted imidazopyridazines” (BAYER PHARMA AKTIENGESELLSCHAFT, priority 2012, dated 2016).

The assay has as its target human full-length MKNK1 (Homo sapiens, UniProt Q9BUB5, T344D). Kind of assay: MKNK1 kinase high ATP assay (TR-FRET). It counts as biochemical. The conditions noted are these: 2 mM ATP, 15 min preincubation with MKNK1, TR-FRET. How it is done: MKNK1 Kinase High ATP Assay
MKNK1-inhibitory activity at high ATP of compounds of the present invention after their preincubation with MKNK1 was quantified employing the TR-FRET-based MKNK1 high ATP assay as described in the following paragraphs.
A recombinant fusion protein of Glutathione-S-Transferase (GST, N-terminally) and human full-length MKNK1 (amino acids 1-424 and T344D of accession number BAA 19885.1), expressed in insect cells using baculovirus expression system and purified via glutathione sepharose affinity chromatography, was purchased from Carna Biosciences (product no 02-145) and used as enzyme. As substrate for the kinase reaction the biotinylated peptide biotin-Ahx-IKKRKLTRRKSLKG (C-terminus in amide form) was used, which can be purchased e.g. from the company Biosyntan (Berlin-Buch, Germany).
For the assay 50 nl nL of a 100fold concentrated solution of the test compound in DMSO was pipetted into a black low volume 384well microtiter plate (Greiner Bio-One, Frickenhausen, Germany), 2 μL of a solution of MKNK1 in aqueous assay buffer [50 mM HEPES pH 7.5, 5 mM magnesium chloride, 1.0 mM dithiothreitol, 0.005% (v/v) Nonidet-P40 (Sigma)] was added and the mixture was incubated for 15 min at 22° C. to allow pre-binding of the test compounds to the enzyme before the start of the kinase reaction. Then the kinase reaction was started by the addition of 3 μL of a solution of adenosine-tri-phosphate (ATP, 3.3 mM=>final conc. in the 5 μL assay volume is 2 mM) and substrate (0.1 μM=>final conc. in the 5 μL assay volume is 0.06 μM) in assay buffer and the resulting mixture was incubated for a reaction time of 30 min at 22° C. The concentration of MKNK1 was adjusted depending of the activity of the enzyme lot and was chosen appropriate to have the assay in the linear range, typical concentrations were in the range of 0.003 μg/mL. The reaction was stopped by the addition of 5 μL of a solution of TR-FRET detection reagents (5 nM streptavidine-XL665 [Cisbio Bioassays, Codolet, France] and 1 nM anti-ribosomal protein S6 (pSer236)-antibody from Invitrogen [#44921G] and 1 nM LANCE EU-W1024 labeled ProteinG [Perkin-Elmer, product no. AD0071]) in an aqueous EDTA-solution (100 mM EDTA, 0.1% (w/v) bovine serum albumin in 50 mM HEPES pH 7.5).
The resulting mixture was incubated for 1 h at 22° C. to allow the formation of complex between the phosphorylated biotinylated peptide and the detection reagents. Subsequently the amount of phosphorylated substrate was evaluated by measurement of the resonance energy transfer from the Eu-chelate to the streptavidine-XL. Therefore, the fluorescence emissions at 620 nm and 665 nm after excitation at 350 nm were measured in a TR-FRET reader, e.g. a Rubystar (BMG Labtechnologies, Offenburg, Germany) or a Viewlux (Perkin-Elmer). The ratio of the emissions at 665 nm and at […] was taken as the measure for the amount of phosphorylated substrate. The data were normalised (enzyme reaction without inhibitor=0% inhibition, all other assay components but no enzyme=100% inhibition).
In general terms: Time-resolved FRET reads energy transfer from a long-lived donor to a nearby acceptor.
With `c1cc2oc(-c3cnc4ccc(OCC[C@@H]5CCCN5)nn34)cc2cn1` [Example 6, 3-(Furo[3,2-c]pyridin-2-yl)-6-{2-[(2S)-pyrrolidin-2-yl]ethoxy}imidazo[1,2-b]-pyridazine], the IC50 (in general, the point on the concentration scale where inhibition reaches its midpoint) is 132 nM.
For the compound `COc1nccc2oc(-c3cnc4ccc(O[C@@H](CNC5CC5)c5ccc(F)cc5)nn34)cc12` (stereo in doubt) [Example 7, N-[2-(4-Fluorophenyl)-2-{[3-(4-methoxyfuro[3,2-c]pyridin-2-yl)imidazo[1,2-b]-pyridazin-6-yl]oxy}ethyl]cyclopropanamine], the IC50 amounted to 389 nM.
The same measure for `COc1nccc2oc(-c3cnc4ccc(OC[C@@H]5CCCCN5)nn34)cc12` [Example 8, 3-(4-Methoxyfuro[3,2-c]pyridin-2-yl)-6-[(2S)-piperidin-2-ylmethoxy]imidazo-[1,2-b]pyridazine]: 48 nM; for `CN[C@H](C)COc1ccc2ncc(-c3cc4c(OC)nccc4o3)n2n1` (stereo in doubt) [Example 3, 1-{[3-(4-Methoxyfuro[3,2-c]pyridin-2-yl)imidazo[1,2-b]pyridazin-6-yl]oxy}-N-methylpropan-2-amine]: 32 nM; for `c1cc2oc(-c3cnc4ccc(OC[C@H]5CNCCO5)nn34)cc2cn1` [Example 4, 3-(Furo[3,2-c]pyridin-2-yl)-6-[(2R)-morpholin-2-ylmethoxy]imidazo[1,2-b]-pyridazine]: 72 nM.
With `c1cnc2cc(-c3cnc4ccc(OC[C@H]5CNCCO5)nn34)oc2c1` [Example 5, 3-(Furo[3,2-b]pyridin-2-yl)-6-[(2R)-morpholin-2-ylmethoxy]imidazo[1,2-b]-pyridazine] the figure was 86 nM.
`COc1nccc2oc(-c3cnc4ccc(OCC5CNC5)nn34)cc12` [Example 2, 6-(Azetidin-3-ylmethoxy)-3-(4-methoxyfuro[3,2-c]pyridin-2-yl)imidazo[1,2-b]-pyridazine]: the IC50 was found to be 31 nM.
For the compound `COc1nccc2oc(-c3cnc4ccc(OC[C@H]5CNCCO5)nn34)cc12` [Example 1, 3-(4-Methoxyfuro[3,2-c]pyridin-2-yl)-6-[(2R)-morpholin-2-ylmethoxy]imidazo-[1,2-b]pyridazine], the IC50 was 11 nM.
